{
  "source": "patent US6737383B1",
  "about": "“Herbicidal oxadiazolidines” (priority 1999, dated 2004)",
  "key": {"blackgrass": {"tested_on": "blackgrass", "assay": "Test E blackgrass", "type": "in vivo, Alopecurus myosuroides", "conditions": "Preemergence"}, "winter barley": {"tested_on": "winter barley", "assay": "Test E winter barley", "type": "in vivo, Hordeum vulgare", "conditions": "Preemergence"}, "wild oat": {"tested_on": "wild oat", "assay": "Test E wild oat", "type": "in vivo, Avena fatua", "conditions": "Preemergence"}, "Italian ryegrass": {"tested_on": "Italian ryegrass", "assay": "Test E Italian ryegrass", "type": "in vivo, Lolium multiflorum", "conditions": "Preemergence"}, "bamyardgrass": {"tested_on": "bamyardgrass", "assay": "Test B flood test barnyardgrass", "type": "in vivo, Echinochloa crus-galli", "how_it_was_run": "(§1)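 Read-out is a visual response score from 0 (no effect) to 10 (complete control), assigned by comparison with untreated controls. Treatment was applied at the 2-leaf stage, and plants stayed in the greenhouse for twelve to sixteen days before scoring.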"}, "winter wheat [1]": {"tested_on": "winter wheat", "assay": "Test E winter wheat", "type": "in vivo, Triticum aestivum", "conditions": "Postemergence", "how_it_was_run": "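Greenhouse test: for postemergence, foliar application at 1- to 4-leaf stage; compound in non-phytotoxic solvent with surfactant. Rating is visual, relative to untreated controls, about 21 to 28 days after treatment.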"}, "rice": {"tested_on": "rice", "assay": "Test B flood test rice", "type": "in vivo, Oryza sativa", "how_it_was_run": "as §1"}, "soybean": {"tested_on": "soybean", "assay": "Test B pre/postemergence soybean", "type": "in vivo, Glycine max", "how_it_was_run": "(§2)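 Response is a visual 0-to-10 score relative to untreated plants, where 0 means no effect and 10 means complete control, taken twelve to sixteen days after application. Treatments went onto soil at planting and onto foliage of 1- to 4-leaf plants, using a surfactant-containing non-phytotoxic solvent.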"}, "green foxtail": {"tested_on": "green foxtail", "assay": "Test E green foxtail", "type": "in vivo, Setaria viridis", "conditions": "Preemergence"}, "giant foxtail": {"tested_on": "giant foxtail", "assay": "Test B pre/postemergence giant foxtail", "type": "in vivo, Setaria faberii", "how_it_was_run": "as §2"}, "winter wheat [2]": {"tested_on": "winter wheat", "assay": "Test E winter wheat", "type": "in vivo, Triticum aestivum", "conditions": "Preemergence"}, "[3]": {"conditions": "Rate 125 g/ha, 0 to 100 scale (0 no effect, 100 complete control)"}, "[4]": {"conditions": "Rate 500 g/ha, 0 to 100 scale (0 no effect, 100 complete control)"}, "[5]": {"conditions": "Rate 1000 g/ha, 0 to 100 scale, 0 no effect, 100 complete control"}, "[6]": {"conditions": "Rate 31 g/ha, Pre-emergence section (flood test species), scale 0 to 10"}, "[7]": {"conditions": "Rate 62 g/ha, headed Pre-emergence (flood test species), scale 0 to 10 (0 no effect, 10 complete control)"}, "[8]": {"conditions": "Rate 125 g/ha, Pre-emergence, flood test species, scale 0 to 10 where 0 is no effect and 10 is complete control"}, "[9]": {"conditions": "Rate 250 g/ha, Pre-emergence, flood-test species, scale 0 to 10, 0 is no effect, 10 is complete control"}, "[10]": {"conditions": "Rate 125 g/ha, 0 to 100 scale, 0 is no effect, 100 is complete control"}, "[11]": {"conditions": "Preemergence, Rate 31 g/ha, visual rating, scale 0 to 10 (0 no effect, 10 complete control)"}, "[12]": {"conditions": "Preemergence, Rate 62 g/ha, scale of 0 to 10 where 0 is no effect and 10 is complete control"}, "[13]": {"conditions": "Preemergence, Rate 250 g/ha, scale of 0 to 10 where 0 is no effect and 10 is complete control"}, "[14]": {"conditions": "Rate 62 g/ha, Postemergence, scale 0 to 10, 0 no effect, 10 complete control"}, "[15]": {"conditions": "Rate 125 g/ha, Postemergence, scale of 0 to 10 where 0 is no effect and 10 is complete control"}, "[16]": {"conditions": "Rate 125 g/ha, Preemergence, scale of 0 to 10 where 0 is no effect and 10 is complete control"}, "[17]": {"conditions": "Rate 250 g/ha, Postemergence, scale of 0 to 10 where 0 is no effect and 10 is complete control"}, "[18]": {"conditions": "Rate 500 g/ha, Pre-emergence, flood test species, scale 0 to 10 (0 no effect, 10 complete control)"}, "[19]": {"conditions": "Preemergence, Rate 500 g/ha, scale of 0 to 10 where 0 is no effect and 10 is complete control"}},
  "data": [
    {"compound": "CC(Cl)=CCn1c(=O)on(C(=O)N(c2ccc(F)cc2)C(C)C)c1=O", "note": "[Compound 285]", "values": [
      {"measurement": "Plant response rating, Blackgrass", "setting": "blackgrass; [3]", "value": 20},
      {"measurement": "Plant response rating, Blackgrass", "setting": "blackgrass; [4]", "value": 55},
      {"measurement": "Plant response rating, Blackgrass", "setting": "blackgrass; [5]", "value": 70},
      {"measurement": "Plant response rating, Barley (winter)", "setting": "winter barley; [3]", "value": 0},
      {"measurement": "Plant response rating, Barley (winter)", "setting": "winter barley; [4]", "value": 10},
      {"measurement": "Plant response rating, Barley (winter)", "setting": "winter barley; [5]", "value": 20},
      {"measurement": "Plant response rating, Wild oat", "setting": "wild oat; [3]", "value": 10},
      {"measurement": "Plant response rating, Wild oat", "setting": "wild oat; [4]", "value": 20},
      {"measurement": "Plant response rating, Wild oat", "setting": "wild oat; [5]", "value": 40},
      {"measurement": "Plant response rating, I. Ryegrass", "setting": "Italian ryegrass; [3]", "value": 20},
      {"measurement": "Plant response rating, I. Ryegrass", "setting": "Italian ryegrass; [4]", "value": 70},
      {"measurement": "Plant response rating, I. Ryegrass", "setting": "Italian ryegrass; [5]", "value": 70},
      {"measurement": "Barnyardgrass plant response rating", "setting": "bamyardgrass; [6]", "value": 0},
      {"measurement": "Barnyardgrass plant response rating", "setting": "bamyardgrass; [7]", "value": 0},
      {"measurement": "Barnyardgrass plant response rating", "setting": "bamyardgrass; [8]", "value": 0},
      {"measurement": "Barnyardgrass plant response rating", "setting": "bamyardgrass; [9]", "value": 7},
      {"measurement": "Plant response rating, Wheat (winter)", "setting": "winter wheat [1]; [10]", "value": 20},
      {"measurement": "Plant response rating, Wheat (winter)", "setting": "winter wheat [1]; Rate 1000 g/ha, 0 to 100 scale where 0 is no effect and 100 is complete control", "value": 30},
      {"measurement": "Wheat (winter) plant response rating", "setting": "winter wheat [1]; Rate 250 g/ha, 0 to 100 scale where 0 is no effect and 100 is complete control", "value": 20},
      {"measurement": "Plant response rating, Wheat (winter)", "setting": "winter wheat [1]; Rate 500 g/ha, 0 to 100 scale, 0 is no effect, 100 is complete control", "value": 40},
      {"measurement": "Rice plant response rating", "setting": "rice; [6]", "value": 0},
      {"measurement": "Rice plant response rating", "setting": "rice; [7]", "value": 0},
      {"measurement": "Rice plant response rating", "setting": "rice; [8]", "value": 0},
      {"measurement": "Rice plant response rating", "setting": "rice; [9]", "value": 0},
      {"measurement": "Soybean plant response rating", "setting": "soybean; [11]", "value": 0},
      {"measurement": "Soybean plant response rating", "setting": "soybean; [12]", "value": 0},
      {"measurement": "Soybean plant response rating", "setting": "soybean; [13]", "value": 0},
      {"measurement": "Soybean plant response rating", "setting": "soybean; [14]", "value": 2},
      {"measurement": "Soybean plant response rating", "setting": "soybean; [15]", "value": 2},
      {"measurement": "Soybean plant response rating", "setting": "soybean; [16]", "value": 0},
      {"measurement": "Plant response rating, Soybean", "setting": "soybean; [17]", "value": 3},
      {"measurement": "Plant response rating, Green foxtail", "setting": "green foxtail; [3]", "value": 20},
      {"measurement": "Plant response rating, Green foxtail", "setting": "green foxtail; [4]", "value": 60},
      {"measurement": "Plant response rating, Green foxtail", "setting": "green foxtail; [5]", "value": 65},
      {"measurement": "Giant foxtail plant response rating", "setting": "giant foxtail; [11]", "value": 7},
      {"measurement": "Giant foxtail plant response rating", "setting": "giant foxtail; [12]", "value": 8},
      {"measurement": "Giant foxtail plant response rating", "setting": "giant foxtail; [13]", "value": 10},
      {"measurement": "Giant foxtail plant response rating", "setting": "giant foxtail; Rate 31 g/ha, Postemergence, scale 0 to 10", "value": 0},
      {"measurement": "Giant foxtail plant response rating", "setting": "giant foxtail; [14]", "value": 0},
      {"measurement": "Giant foxtail plant response rating", "setting": "giant foxtail; [15]", "value": 0},
      {"measurement": "Giant foxtail plant response rating", "setting": "giant foxtail; [16]", "value": 9},
      {"measurement": "Plant response rating, Giant foxtail", "setting": "giant foxtail; [17]", "value": 0},
      {"measurement": "Plant response rating, Wheat (winter)", "setting": "winter wheat [2]; [3]", "value": 30},
      {"measurement": "Plant response rating, Wheat (winter)", "setting": "winter wheat [2]; [4]", "value": 25},
      {"measurement": "Plant response rating, Wheat (winter)", "setting": "winter wheat [2]; [5]", "value": 50}
    ]},
    {"compound": "CC(C)N(C(=O)n1oc(=O)n(C2CC2)c1=O)c1ccc(F)cc1F", "note": "[Compound 299]", "values": [
      {"measurement": "Plant response rating, Blackgrass", "setting": "blackgrass; [3]", "value": 60},
      {"measurement": "Plant response rating, Blackgrass", "setting": "blackgrass; Rate 250 g/ha, 0 to 100 scale", "value": 100},
      {"measurement": "Plant response rating, Barley (winter)", "setting": "winter barley; [3]", "value": 40},
      {"measurement": "Plant response rating, Barley (winter)", "setting": "winter barley; Rate 250 g/ha, 0 to 100 scale, 0 no effect, 100 complete control", "value": 50},
      {"measurement": "Plant response rating, Wild oat", "setting": "wild oat; [3]", "value": 65},
      {"measurement": "Plant response rating, Wild oat", "setting": "wild oat; Rate 250 g/ha, 0 to 100 scale", "value": 70},
      {"measurement": "Plant response rating, I. Ryegrass", "setting": "Italian ryegrass; [3]", "value": 70},
      {"measurement": "Plant response rating, I. Ryegrass", "setting": "Italian ryegrass; Rate 250 g/ha, 0 to 100 scale", "value": 85},
      {"measurement": "Barnyardgrass plant response rating", "setting": "bamyardgrass; [7]", "value": 0},
      {"measurement": "Barnyardgrass plant response rating", "setting": "bamyardgrass; [8]", "value": 2},
      {"measurement": "Barnyardgrass plant response rating", "setting": "bamyardgrass; [9]", "value": 6},
      {"measurement": "Barnyardgrass plant response rating", "setting": "bamyardgrass; [18]", "value": 9},
      {"measurement": "Plant response rating, Wheat (winter)", "setting": "winter wheat [1]; [10]", "value": 60},
      {"measurement": "Plant response rating, Wheat (winter)", "setting": "winter wheat [1]; Rate 250 g/ha, 0 to 100 scale, 0 is no effect, 100 is complete control", "value": 70},
      {"measurement": "Rice plant response rating", "setting": "rice; [7]", "value": 0},
      {"measurement": "Rice plant response rating", "setting": "rice; [8]", "value": 0},
      {"measurement": "Rice plant response rating", "setting": "rice; [9]", "value": 0},
      {"measurement": "Rice plant response rating", "setting": "rice; [18]", "value": 0},
      {"measurement": "Soybean plant response rating", "setting": "soybean; [12]", "value": 0},
      {"measurement": "Soybean plant response rating (0 to 10 scale)", "setting": "soybean; Preemergence, Rate 125 g/ha", "value": 0},
      {"measurement": "Soybean plant response rating", "setting": "soybean; [13]", "value": 6},
      {"measurement": "Soybean plant response rating", "setting": "soybean; [19]", "value": 7},
      {"measurement": "Soybean plant response rating", "setting": "soybean; [15]", "value": 6},
      {"measurement": "Plant response rating, Soybean", "setting": "soybean; [17]", "value": 6},
      {"measurement": "Plant response rating, Green foxtail", "setting": "green foxtail; [3]", "value": 100},
      {"measurement": "Plant response rating, Green foxtail", "setting": "green foxtail; Rate 250 g/ha, 0 to 100 scale", "value": 100},
      {"measurement": "Giant foxtail plant response rating", "setting": "giant foxtail; [12]", "value": 9},
      {"measurement": "Giant foxtail plant response rating (0 to 10 scale)", "setting": "giant foxtail; Preemergence, Rate 125 g/ha", "value": 10},
      {"measurement": "Giant foxtail plant response rating", "setting": "giant foxtail; [13]", "value": 10},
      {"measurement": "Giant foxtail plant response rating", "setting": "giant foxtail; [19]", "value": 10},
      {"measurement": "Giant foxtail plant response rating", "setting": "giant foxtail; [14]", "value": 7},
      {"measurement": "Giant foxtail plant response rating", "setting": "giant foxtail; [15]", "value": 7},
      {"measurement": "Plant response rating, Giant foxtail", "setting": "giant foxtail; [17]", "value": 8},
      {"measurement": "Plant response rating, Wheat (winter)", "setting": "winter wheat [2]; [3]", "value": 50},
      {"measurement": "Plant response rating, Wheat (winter)", "setting": "winter wheat [2]; Rate 250 g/ha, 0 to 100 scale", "value": 65}
    ]}
  ]
}
